Data published in paper PMC10153361, “Mechanism of imidazole inhibition of a GH1 β‐glucosidase” (FEBS Open Bio, 2023).

Tests used:
[1] = molecular target: T1, Sfβgly (GH1 β-glucosidase from Spodoptera frugiperda) (Spodoptera frugiperda, UniProt O61594); assay: initial-rate kinetics, Lineweaver-Burk plots, p-nitrophenolate release; format: biochemical; details: competitive; also a substrate; substrate p-nitrophenyl β-glucoside; 100 mM phosphate pH 6.0, 30 °C
T1 construct: recombinant, E. coli BL21(DE3), vector pET46, Ni-NTA purified; secreted digestive midgut enzyme; catalytic residues E187 and E399

[2] = molecular target: T1, Sfβgly (GH1 β-glucosidase from Spodoptera frugiperda); assay: initial-rate kinetics, Lineweaver-Burk and secondary plots, p-nitrophenolate release; format: biochemical
Description: initial-rate kinetics, Lineweaver-Burk and secondary plots, p-nitrophenolate release on Sfβgly (GH1 β-glucosidase from Spodoptera frugiperda)

T1 sequence (O61594 21-509): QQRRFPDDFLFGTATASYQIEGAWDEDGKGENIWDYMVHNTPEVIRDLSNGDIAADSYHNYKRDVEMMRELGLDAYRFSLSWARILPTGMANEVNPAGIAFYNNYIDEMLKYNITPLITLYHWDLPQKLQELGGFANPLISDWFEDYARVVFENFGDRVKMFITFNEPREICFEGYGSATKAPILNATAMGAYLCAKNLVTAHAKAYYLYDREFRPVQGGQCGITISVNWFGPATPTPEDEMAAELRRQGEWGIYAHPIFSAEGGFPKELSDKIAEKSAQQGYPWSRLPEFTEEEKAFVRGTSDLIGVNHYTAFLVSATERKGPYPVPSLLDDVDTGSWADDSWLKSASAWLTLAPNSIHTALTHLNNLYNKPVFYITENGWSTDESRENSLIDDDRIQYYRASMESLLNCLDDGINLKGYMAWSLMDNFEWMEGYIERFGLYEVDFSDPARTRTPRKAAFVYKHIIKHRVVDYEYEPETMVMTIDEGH

| Structure (SMILES) | Ki [1] [mM] | Ki [2] [mM] |
| --- | --- | --- |
| OC[C@H]1O[C@@H](O[C@H]2[C@H](O)[C@@H](O)C(O)O[C@@H]2CO)[C@H](O)[C@@H](O)[C@@H]1O (some centres unmarked) [C2, cellobiose] | 10 | – |
| c1c[nH]cn1 [imidazole] | – | 15.3 ± 0.3 |
